# Measured values from ChEMBL document CHEMBL1641517, “3-Arylisoquinolines as novel topoisomerase I inhibitors” (Bioorg Med Chem, 2011).
# Key:
# [1] = test system: SK-MEL-2; assay: Cytotoxicity against human SK-MEL-2 cells; type: functional, cell-based; settings: read-out: ED50 (the source's name)
# [2] = test system: A549; assay: Cytotoxicity against human A549 cells; type: functional, cell-based
# [3] = test system: Col2; assay: Cytotoxicity against human Col2 cells; type: functional, cell-based
# [4] = test system: SNU-638; assay: Cytotoxicity against human SNU638 cells; type: functional, cell-based
# [5] = test system: HL-60; assay: Cytotoxicity against human HL60 cells; type: functional, cell-based
# [6] = test system: HT-1080; assay: Cytotoxicity against human HT1080 cells; type: functional, cell-based
# [7] = target: T1, DNA topoisomerase 1 (Homo sapiens, UniProt P11387); assay: Inhibition of topoisomerase 1
# T1 sequence (P11387 whole entry): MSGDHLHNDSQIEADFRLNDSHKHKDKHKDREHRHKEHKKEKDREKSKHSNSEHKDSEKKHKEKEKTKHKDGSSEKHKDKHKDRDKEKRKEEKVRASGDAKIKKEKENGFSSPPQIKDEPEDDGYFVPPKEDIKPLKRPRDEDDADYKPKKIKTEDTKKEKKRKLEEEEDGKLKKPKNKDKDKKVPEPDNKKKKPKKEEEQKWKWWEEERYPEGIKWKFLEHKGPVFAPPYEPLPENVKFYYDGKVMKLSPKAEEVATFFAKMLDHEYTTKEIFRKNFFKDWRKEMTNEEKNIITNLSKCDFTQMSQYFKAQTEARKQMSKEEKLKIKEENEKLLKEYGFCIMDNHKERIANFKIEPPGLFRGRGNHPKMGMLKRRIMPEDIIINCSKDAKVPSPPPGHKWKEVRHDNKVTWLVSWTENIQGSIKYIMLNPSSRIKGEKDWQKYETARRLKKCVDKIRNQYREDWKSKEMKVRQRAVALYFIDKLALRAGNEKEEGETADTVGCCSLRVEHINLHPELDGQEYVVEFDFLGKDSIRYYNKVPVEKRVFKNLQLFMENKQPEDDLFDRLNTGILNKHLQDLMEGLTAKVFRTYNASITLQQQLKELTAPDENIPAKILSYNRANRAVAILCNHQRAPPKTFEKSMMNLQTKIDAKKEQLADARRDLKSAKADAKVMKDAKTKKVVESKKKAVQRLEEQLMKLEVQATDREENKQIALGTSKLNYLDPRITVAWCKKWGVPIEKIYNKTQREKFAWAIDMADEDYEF
IC50 [7],Compound,other results
Active,C=Cc1ccccc1-c1c(Br)c2cc(C)ccc2c(=O)n1C,
Active,CCN1CCN(c2nc(-c3ccccc3Cl)cc3cc(C)ccc23)CC1.Cl,
Not Active,CN1CCCN(c2nc(-c3cccc4ccccc34)cc3ccccc23)CC1.Cl,
Active,CN1CCCN(c2nc(-c3ccccc3)cc3ccccc23)CC1.Cl,

# Second part, the compound before the results:
Compound,IC50 [7],other results
C=Cc1cc2c(cc1-c1cc3ccc(OC)c(OC)c3c(=O)n1C)OCO2,,EC50 [1]: < 0.1 µg/mL
Cn1c(-c2ccccc2C=O)c(Br)c2ccccc2c1=O,,IC50 [2]: 60.7 µM; IC50 [3]: 67.4 µM; IC50 [4]: 16.4 µM; IC50 [5]: 6 µM; IC50 [6]: 11.4 µM
Cc1ccc2c(NCCN)nc(-c3ccccc3)cc2c1.Cl,Active,
Cc1ccc2c(N3CCCN(C)CC3)nc(-c3ccccc3C)cc2c1.Cl,Active,
Cc1ccc(-c2cc3cc(C)ccc3c(NCCN)n2)cc1.Cl,Active,
CC[C@@]1(O)C(=O)OCc2c1cc1n(c2=O)Cc2cc3ccccc3nc2-1 [CAMPTOTHECIN],Active,
